System: Ebola virus
Format: cell-based
Settings: alone

CC[C@H]1OC(=O)[C@H](C)[C@@H](O[C@H]2C[C@@](C)(OC)[C@@H](O)[C@H](C)O2)[C@H](C)[C@@H](O[C@@H]2O[C@H](C)C[C@H](N(C)C)[C@H]2O)[C@](C)(OC)C[C@@H](C)C(=O)[C@H](C)[C@@H](O)[C@]1(C)O [Clarithromycin]
inhibit EBOV infection in primary macrophages: can inhibit EBOV infection

— US9974800B2 (priority 2014, dated 2018)
